Test results from patent US12358932B2, “Chemical compounds” (BORAH, INC., priority 2019, dated 2025).

Biological target: T1, Recombinant human PDE4B (Homo sapiens, UniProt Q07343)
T1 construct: aa 305-end; GST (N); made in house; host or cells: Sf9 insect cells (baculovirus)
Test: PDE4B Phosphodiesterase Assay
Type: biochemical
Parameters: key to Activity Note: PDE4: The (+) symbols identify a compound of the present disclosure with the noted target activity; +*: The (*) symbols indicate preferential activity, where the greater number identifies the most preferred compounds; +**: The (*) symbols indicate preferential activity, where the greater number identifies the most preferred compounds; +***: The (*) symbols indicate preferential activity, where the greater number identifies the most preferred compounds
Details: compound list; + = noted target activity
Description: The assay is based on the fluorescence polarization measuring AMP/GMP production as a result of the enzyme activity by displacement of Tracer binding to the AMP/GMP antibody. • Reaction Buffer: 10 mM Tris-HCl, pH 7.5, 5 mM MgCl2, 0.01% Brij 35, 1 mM DTT and 1% DMSO. • Enzyme: Recombinant human PDE4B (Gene Accession #NM_002600; aa 305-end) was expressed by baculovirus in Sf9 insect cells using an N-terminal GST tag. Mw=78 kDa. • Substrate: 1 μM cAMP • Detection: Transcreener® AMP2/GMP2 Antibody AMP2/GMP2 AlexaFluor 633 Tracer Reaction Procedure: • 1. Prepared indicated enzyme and substrate in freshly prepared Reaction Buffer • 2. Delivered enzyme solution into the reaction well • 3. Delivered compounds in 100% DMSO into the enzyme solution by Acoustic technology (Echo550; nanoliter range), incubated for 10 min at room temperature • 4. Delivered substrate solution into the reaction well to initiate the reaction • 5. Incubated for 1 h at room temperature • 6. Added detection mixture (Tracer and antibody in the stop buffer) to stop the reaction and incubated for 90 min with gentle mixing. The fluorescence polarization was measured at Ex/Em 620/688.
Data Analysis: The FP signals were converted into nM product based on an AMP/GMP standard curve and calculated % Enzyme activity relative to DMSO control by Excel. The curve fit was performed using GraphPad prism.

T1 sequence (Q07343 305-736 limits assumed): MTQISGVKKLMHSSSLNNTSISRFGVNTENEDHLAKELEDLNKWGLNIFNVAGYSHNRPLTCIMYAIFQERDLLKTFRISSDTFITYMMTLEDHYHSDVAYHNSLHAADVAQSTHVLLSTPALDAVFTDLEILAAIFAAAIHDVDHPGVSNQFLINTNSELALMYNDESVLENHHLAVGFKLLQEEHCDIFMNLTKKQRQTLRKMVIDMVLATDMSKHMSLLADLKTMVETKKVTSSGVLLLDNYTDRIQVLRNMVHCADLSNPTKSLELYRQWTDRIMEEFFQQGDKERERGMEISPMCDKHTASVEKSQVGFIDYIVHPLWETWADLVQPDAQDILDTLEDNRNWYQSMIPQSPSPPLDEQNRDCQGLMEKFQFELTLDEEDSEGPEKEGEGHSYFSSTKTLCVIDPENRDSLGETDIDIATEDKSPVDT

Activity Note: PDE4	SMILES
+	CCC(CC)Nc1nc(Nc2ccc3c(c2)COB3O)ncc1C [5-((5-methyl-4-(pentan-3-ylamino)pyrimidin-2-yl)amino)benzo[c][1,2]oxaborol-1(3H)-ol]
+	Cc1cnc(Nc2ccc3c(c2)COB3O)nc1Nc1ccccc1F [5-((4-((2-fluorophenyl)amino)-5-methylpyrimidin-2-yl)amino)benzo[c][1,2]oxaborol-1(3H)-ol]
+	CCCC(CC)Nc1nc(Nc2ccc3c(c2)COB3O)ncc1F (centres unmarked) [5-((5-fluoro-4-(hexan-3-ylamino)pyrimidin-2-yl)amino)benzo[c][1,2]oxaborol-1(3H)-ol]
+	Cc1cnc(Nc2ccc3c(c2)COB3O)nc1OC1CCCCC1 [5-((4-(cyclohexyloxy)-5-methylpyrimidin-2-yl)amino)benzo[c][1,2]oxaborol-1(3H)-ol]
+	CCC(CC)Nc1nc(Nc2ccc3c(c2)COB3O)ncc1C#N [2-((1-hydroxy-1,3-dihydrobenzo[c][1,2]oxaborol-5-yl)amino)-4-(pentan-3-ylamino) pyrimidine-5-carbonitrile]
+	Cc1cnc(Nc2ccc3c(c2)COB3O)nc1NC(CCO)CCO [3-((2-((1-hydroxy-1,3-dihydrobenzo[c][1,2]oxaborol-5-yl)amino)-5-methylpyrimidin-4-yl)amino)pentane-1,5-diol]
+	Cc1cnc(Nc2ccc3c(c2)COB3O)nc1NC1CCCC(C)C1 (centres unmarked) [5-((5-methyl-4-((3-methylcyclohexyl)amino)pyrimidin-2-yl)amino)benzo[c][1,2]oxaborol-1(3H)-ol]
+	CCC(C)Nc1nc(Nc2ccc3c(c2)COB3O)ncc1C(F)(F)F (centres unmarked) [5-((4-(sec-butylamino)-5-(trifluoromethyl)pyrimidin-2-yl)amino)benzo[c][1,2]oxaborol-1(3H)-ol]
+	OB1OCc2cc(Nc3ncc(Cl)c(NC4CCCC4)n3)cc(F)c21 [5-((5-chloro-4-(cyclopentylamino)pyrimidin-2-yl)amino)-7-fluorobenzo[c][1,2]oxaborol-1(3H)-ol]
+	CCC(C)Nc1nc(Nc2ccc3c(c2)COB3O)ncc1Cl (centres unmarked) [5-((4-(sec-butylamino)-5-chloropyrimidin-2-yl)amino)benzo[c][1,2]oxaborol-1(3H)-ol]
+	Cc1cnc(Nc2ccc3c(c2)COB3O)nc1NC1CCOC(O)C1 (centres unmarked) [5-((4-((2-hydroxytetrahydro-2H-pyran-4-yl)amino)-5-methylpyrimidin-2-yl)amino)benzo[c][1,2]oxaborol-1(3H)-ol]

Second part, the compound before the results:

SMILES	Activity Note: PDE4
CCC(CC)Nc1nc(Nc2ccc3c(c2)COB3O)ncc1C(F)(F)F [5-((4-(pentan-3-ylamino)-5-(trifluoromethyl)pyrimidin-2-yl)amino)benzo[c][1,2]oxaborol-1(3H)-ol]	+
Cc1cnc(Nc2ccc3c(c2)COB3O)nc1NCc1ccc(F)cc1 [5-((4-((4-fluorobenzyl)amino)-5-methylpyrimidin-2-yl)amino)benzo[c][1,2]oxaborol-1(3H)-ol]	+
CCC(CC)Nc1nc(Nc2cc(F)c3c(c2)COB3O)ncc1C(F)(F)F [7-fluoro-5-((4-(pentan-3-ylamino)-5-(trifluoromethyl)pyrimidin-2-yl)amino)benzo[c][1,2]oxaborol-1(3H)-ol]	+
OB1OCc2cc(Nc3ncc(Cl)c(NCc4ccccc4)n3)ccc21 [5-((4-(benzylamino)-5-chloropyrimidin-2-yl)amino)benzo[c][1,2]oxaborol-1(3H)-ol]	+
OB1OCc2cc(Nc3ncc(F)c(NC4CCCC4)n3)ccc21 [5-((4-(cyclopentylamino)-5-fluoropyrimidin-2-yl)amino)benzo[c][1,2]oxaborol-1(3H)-ol]	+
CCCC(CC)Nc1nc(Nc2ccc3c(c2)COB3O)ncc1C (centres unmarked) [5-((4-(hexan-3-ylamino)-5-methylpyrimidin-2-yl)amino)benzo[c][1,2]oxaborol-1(3H)-ol]	+
CSc1nc(Nc2ccc3c(c2)COB3O)ncc1Cl [5-((5-chloro-4-(methylthio)pyrimidin-2-yl)amino)benzo[c][1,2]oxaborol-1(3H)-ol]	+
OB1OCc2cc(Nc3ncc(F)c(NC4CCCCC4)n3)ccc21 [5-((4-(cyclohexylamino)-5-fluoropyrimidin-2-yl)amino)benzo[c][1,2]oxaborol-1(3H)-ol]	+
CCC(CC)Nc1nc(Nc2ccc3c(c2)COB3O)ncc1Cl [5-((5-chloro-4-(pentan-3-ylamino)pyrimidin-2-yl)amino)benzo[c][1,2]oxaborol-1(3H)-ol]	+
Cc1cnc(Nc2ccc3c(c2)COB3O)nc1SC1CCCCC1 [5-((4-(cyclohexylthio)-5-methylpyrimidin-2-yl)amino)benzo[c][1,2]oxaborol-1(3H)-ol]	+
CCCNc1nc(Nc2ccc3c(c2)COB3O)ncc1C [5-((5-methyl-4-(propylamino)pyrimidin-2-yl)amino)benzo[c][1,2]oxaborol-1(3H)-ol]	+
Cc1cnc(Nc2ccc3c(c2)COB3O)nc1Nc1cccc2c1C(=O)N(CCF)C2 [2-(2-fluoroethyl)-7-((2-((1-hydroxy-1,3-dihydrobenzo[c][1,2]oxaborol-5-yl)amino)-5-methylpyrimidin-4-yl)amino)isoindolin-1-one]	+
Cc1cnc(Nc2ccc3c(c2)COB3O)nc1NC1CCC(C)CC1 (centres unmarked) [5-((5-methyl-4-((4-methylcyclohexyl)amino)pyrimidin-2-yl)amino)benzo[c][1,2]oxaborol-1(3H)-ol]	+
OB1OCc2cc(Nc3ncc(F)c(NCCC4CC4)n3)ccc21 [5-((4-((2-cyclopropylethyl)amino)-5-fluoropyrimidin-2-yl)amino)benzo[c][1,2]oxaborol-1(3H)-ol]	+
Cc1cnc(Nc2ccc3c(c2)COB3O)nc1Nc1ccccc1OC(F)(F)F [5-((5-methyl-4-((2-(trifluoromethoxy)phenyl)amino)pyrimidin-2-yl)amino)benzo[c][1,2]oxaborol-1(3H)-ol]	+
CCCNc1nc(Nc2ccc3c(c2)COB3O)ncc1Cl [5-((5-chloro-4-(propylamino)pyrimidin-2-yl)amino)benzo[c][1,2]oxaborol-1(3H)-ol]	+
CS(=O)(=O)c1nc(Nc2ccc3c(c2)COB3O)ncc1Cl [5-((5-chloro-4-(methylsulfonyl)pyrimidin-2-yl)amino)benzo[c][1,2]oxaborol-1(3H)-ol]	+
CCC(Nc1nc(Nc2ccc3c(c2)COB3O)ncc1C)c1ccccc1 (centres unmarked) [5-((5-methyl-4-((1-phenylpropyl)amino)pyrimidin-2-yl)amino)benzo[c][1,2]oxaborol-1(3H)-ol]	+
CCC(CC)Sc1nc(Nc2ccc3c(c2)COB3O)ncc1C [5-((5-methyl-4-(pentan-3-ylthio)pyrimidin-2-yl)amino)benzo[c][1,2]oxaborol-1(3H)-ol]	+
Cc1cnc(Nc2ccc3c(c2)COB3O)nc1NC(CCF)CCF [5-((4-((1,5-difluoropentan-3-yl)amino)-5-methylpyrimidin-2-yl)amino)benzo[c][1,2]oxaborol-1(3H)-ol]	+
OB1OCc2cc(Nc3ncc(Cl)c(NCCC4CC4)n3)ccc21 [5-((5-chloro-4-((2-cyclopropylethyl)amino)pyrimidin-2-yl)amino)benzo[c][1,2]oxaborol-1(3H)-ol]	+
